The experiment deals with T1, Ceramide glucosyltransferase (Homo sapiens, UniProt Q16739).
T1 sequence (Q16739 whole entry): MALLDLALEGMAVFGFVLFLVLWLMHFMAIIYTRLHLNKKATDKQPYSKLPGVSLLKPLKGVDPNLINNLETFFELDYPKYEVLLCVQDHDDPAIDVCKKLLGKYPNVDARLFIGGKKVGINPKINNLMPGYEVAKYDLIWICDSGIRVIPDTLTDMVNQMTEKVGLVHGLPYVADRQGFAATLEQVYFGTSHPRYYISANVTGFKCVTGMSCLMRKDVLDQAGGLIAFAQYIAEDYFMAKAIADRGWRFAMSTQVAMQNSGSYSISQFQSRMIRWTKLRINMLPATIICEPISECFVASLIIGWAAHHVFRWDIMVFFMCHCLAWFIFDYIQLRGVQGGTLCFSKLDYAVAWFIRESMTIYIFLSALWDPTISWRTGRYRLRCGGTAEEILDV
In words: UDP-Glo Glucosylceramide Synthase Biochemical Assay. The method, then:
Using Promega's UDP-Glo Glycosyltransferase assay kit (Promega Corporation, Madison, WI, USA (Promega)), GCS activity was indirectly measured by detecting the amount of UDP produced. An aliquot of GCS enzyme (1.5 μg crude golgi preparation, total protein) and titrated test compound were aliquoted to each well and incubated for 30 minutes at room temperature. […] An equivalent volume of substrate mixture was then added to each well. Following a 20 h incubation at room temperature to allow for GCS turnover of substrate, an equal volume of UDP detection reagent (Promega) was added to each well and incubated for an additional 75 minutes at room temperature to simultaneously convert the accumulated UDP product into ATP and generate light in a luciferase reaction. The generated light was detected using a luminometer.

By EC50 is commonly meant the concentration that produces a half-maximal response.

As for `CN1CCN(C(=O)c2cn3cc(Cl)cc(-c4ccccc4OCC(F)(F)F)c3n2)CC1(C)C` [US20240018140, Compound 7], the EC50 came out at 1.2 nM.

The compound `COCC1(NC(=O)c2cn3cc(Cl)cc(-c4ccccc4OCC(F)(F)F)c3n2)CC1` [US20240018140, Compound 6] registered an EC50 of 2.4 nM.

The values are drawn from BindingDB's records for patent US20240018140 (Merck Sharp & Dohme, 2024).
